Data on 27 molecules can be found in US9102621B2, “Acyl sulfonamide compounds” (Pfizer Limited, priority 2010, dated 2015).

This experiment has as its target T1, Nav1.7 (or SCN9A) channel (Homo sapiens, UniProt Q15858).
T1 construct: expressed in transfected cells
Nature of the experiment: Nav1.7 (hSCN9A) channel block, PatchXpress whole-cell electrophysiology. Format: cell-based. Conditions: PatchXpress platform; HEK cells stably transfected with hSCN9A; estimated IC-50 calculated from single point % inhibition at V1/2; read-out: Nav1.7 EIC50. The procedure: The ability of the compounds of formula (I) to block the Nav1.7 (or SCN9A) channel were measured using the assay described below.
Human Embryonic Kidney (HEK) cells were transfected with an hSCN9A construct using lipofectamine reagent (Invitrogen), using standard techniques. Cells stably expressing the hSCN9A constructs were identified by their resistance to G-418 (400 μg/ml). Clones were screened for expression using the whole-cell voltage-clamp technique.
HEK cells stably transfected with hSCN9A were maintained in DMEM medium supplemented with 10% heat-inactivated fetal bovine serum and 400 μg/ml G-418 in an incubator at 37° C. with a humidified atmosphere of 10% CO2. For HTS, cells were harvested from flasks by trypsinization and replated in an appropriate multi-well plate (typically 96 or 384 wells/plate) such that confluence would be achieved within 24 hours of plating. For electrophysiological studies, cells were removed from the culture flask by brief trypsinization and re-plated at low density onto glass cover slips. Cells were typically used for electrophysiological experiments within 24 to 72 hours after plating.
Cover slips containing HEK cells expressing hSCN9A were placed in a bath on the stage of an inverted microscope and perfused (approximately 1 ml/minutes) with extracellular solution of the following composition: 138 mM NaCl, 2 mM CaCl2, 5.4 mM KCl, 1 mM MgCl2, 10 mM glucose, and 10 mM HEPES, pH 7.4, with NaOH. […] The osmolarity of the extracellular and intracellular solutions was 300 mOsm/kg and 295 mOsm/kg, respectively. All recordings were made at room temperature (22-24° C.) using AXOPATCH 200B amplifiers and PCLAMP software (Axon Instruments, Burlingame, Calif.).
hSCN9A currents in HEK cells were measured using the whole-cell configuration of the patch-clamp technique (Hamill et al., 1981). Uncompensated series resistance was typically 2 to 5 mega ohms and >85% series resistance compensation was routinely achieved. As a result, voltage errors were negligible and no correction was applied. Current records were acquired at 20 to 50 KHz and filtered at 5 to 10 KHz.
HEK cells stably transfected with hSCN9A were viewed under Hoffman contrast optics and placed in front of an array of flow pipes emitting either control or compound-containing extracellular solutions. All compounds were dissolved in dimethyl sulfoxide to make 10 mM stock solutions, which were then diluted into extracellular solution to attain the final concentrations desired. […] The voltage-dependence of inactivation was determined by applying a series of depolarizing prepulses (8 sec long in 10 mV increments) from a negative holding potential. The voltage was then immediately stepped to 0 mV to assess the magnitude of the sodium current. Currents elicited at 0 mV were plotted as a function of prepulse potential to allow estimation of the voltage at which 50% of the channels were inactivated (midpoint of inactivation or V1/2). Compounds were tested for their ability to inhibit hSCN9A sodium channels by activating the channel with a 20 msec voltage step to 0 mV following an 8 second conditioning prepulse to the empirically determined V1/2. Compound effect (% inhibition) was determined by difference in current amplitude before and after application of test compounds. […] Inhibition values <20% and >80% were excluded from the calculation.
Electrophysiological assays were conducted with PatchXpress 7000 hardware and associated software (Molecular Devices Corp). All assay buffers and solutions were identical to those used in conventional whole-cell voltage clamp experiments described above. hSCN9A cells were grown as above to 50%-80% confluency and harvested by trypsinization. Trypsinized cells were washed and resuspended in extracellular buffer at a concentration of 1×10^6 cells/ml. The onboard liquid handling facility of the PatchXpress was used for dispensing cells and application of test compounds. […]

Structures can show the parent of a compound that is named as a salt. Where only a bound is given, the exact number is not on record here.

T1 sequence (Q15858 whole entry): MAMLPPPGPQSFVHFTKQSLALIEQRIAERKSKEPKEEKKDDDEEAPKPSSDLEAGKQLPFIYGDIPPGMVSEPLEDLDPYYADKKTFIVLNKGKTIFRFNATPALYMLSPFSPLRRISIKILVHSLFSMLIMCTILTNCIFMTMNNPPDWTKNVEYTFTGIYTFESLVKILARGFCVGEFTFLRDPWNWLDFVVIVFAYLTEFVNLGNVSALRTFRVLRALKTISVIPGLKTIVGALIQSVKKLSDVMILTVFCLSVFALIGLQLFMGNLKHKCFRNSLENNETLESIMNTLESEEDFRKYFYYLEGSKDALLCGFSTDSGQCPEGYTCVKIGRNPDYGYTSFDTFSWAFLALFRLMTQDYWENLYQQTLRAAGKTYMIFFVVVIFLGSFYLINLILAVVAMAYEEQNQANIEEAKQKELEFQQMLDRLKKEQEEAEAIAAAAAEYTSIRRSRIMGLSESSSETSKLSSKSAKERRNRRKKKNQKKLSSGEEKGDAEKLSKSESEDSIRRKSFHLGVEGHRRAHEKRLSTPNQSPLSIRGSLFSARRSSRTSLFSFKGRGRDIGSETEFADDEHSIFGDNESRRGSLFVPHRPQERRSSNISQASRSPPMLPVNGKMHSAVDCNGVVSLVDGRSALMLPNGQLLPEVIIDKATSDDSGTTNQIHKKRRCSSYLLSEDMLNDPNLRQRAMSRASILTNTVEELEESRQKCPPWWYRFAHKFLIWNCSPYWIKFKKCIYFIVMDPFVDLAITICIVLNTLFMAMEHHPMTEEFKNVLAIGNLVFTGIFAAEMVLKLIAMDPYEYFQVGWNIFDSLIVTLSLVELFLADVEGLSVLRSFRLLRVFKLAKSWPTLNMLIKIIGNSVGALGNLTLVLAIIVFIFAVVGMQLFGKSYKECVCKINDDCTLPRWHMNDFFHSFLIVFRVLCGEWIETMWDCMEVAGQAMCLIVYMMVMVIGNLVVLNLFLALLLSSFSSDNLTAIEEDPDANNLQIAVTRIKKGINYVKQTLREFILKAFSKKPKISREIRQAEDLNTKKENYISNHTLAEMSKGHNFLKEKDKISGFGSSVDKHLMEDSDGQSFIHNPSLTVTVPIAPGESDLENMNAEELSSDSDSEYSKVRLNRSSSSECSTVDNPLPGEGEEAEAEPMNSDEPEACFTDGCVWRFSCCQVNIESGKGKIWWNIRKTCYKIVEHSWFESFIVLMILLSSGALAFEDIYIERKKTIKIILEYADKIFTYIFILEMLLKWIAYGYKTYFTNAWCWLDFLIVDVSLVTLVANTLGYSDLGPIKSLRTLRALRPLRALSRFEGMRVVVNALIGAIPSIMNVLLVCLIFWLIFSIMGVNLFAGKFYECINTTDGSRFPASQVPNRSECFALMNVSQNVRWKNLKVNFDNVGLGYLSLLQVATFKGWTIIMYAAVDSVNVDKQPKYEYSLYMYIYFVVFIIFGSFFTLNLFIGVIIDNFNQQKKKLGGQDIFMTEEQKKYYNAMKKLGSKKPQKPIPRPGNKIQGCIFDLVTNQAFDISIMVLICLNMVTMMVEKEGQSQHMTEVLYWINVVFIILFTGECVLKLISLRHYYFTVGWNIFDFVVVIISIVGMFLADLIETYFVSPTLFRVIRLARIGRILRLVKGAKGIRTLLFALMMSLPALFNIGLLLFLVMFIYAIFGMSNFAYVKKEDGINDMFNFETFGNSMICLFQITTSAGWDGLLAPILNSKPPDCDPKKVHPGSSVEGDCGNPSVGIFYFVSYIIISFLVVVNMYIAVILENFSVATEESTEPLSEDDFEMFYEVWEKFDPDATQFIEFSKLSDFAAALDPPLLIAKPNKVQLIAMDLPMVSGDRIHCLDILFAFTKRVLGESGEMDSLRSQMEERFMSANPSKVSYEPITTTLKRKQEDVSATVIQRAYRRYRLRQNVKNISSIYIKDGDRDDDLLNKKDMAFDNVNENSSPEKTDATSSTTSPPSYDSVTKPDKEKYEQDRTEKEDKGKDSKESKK

As to `CC(C)COc1ncc(OCc2cc(F)c(C(=O)NS(C)(=O)=O)cc2F)cc1Cl` [Example 1, 4-{[(5-Chloro-6-isobutoxypyridin-3-yl)oxy]methy}-2,5-difluoro-N-(methylsulfonyl)benzamide diethylamine salt], the IC50 is 0.0139 µM.

`CC(C)COc1ncc(OCc2ccc(C(=O)NS(C)(=O)=O)cc2)cc1Cl` [Example 3, 4-{[(5-Chloro-6-isobutoxypyridin-3-yl)oxy]methyl}-N-(methylsulfonyl)benzamide diethylamine salt]: the IC50 is 0.324 µM.

For `COc1ncc(OCc2cc(F)c(C(=O)NS(=O)(=O)C3CC3)cc2F)cc1Cl` [Example 4, 4-((5-Chloro-6-methoxypyridin-3-yloxy)methyl)-N-(cyclopropylsulfonyl)-2,5-difluorobenzamide], the IC50 is 2.6 µM.

`COc1cc(C(=O)NS(C)(=O)=O)ccc1COc1cnc(OCC(C)C)c(Cl)c1` [Example 5, 4-((5-Chloro-6-isobutoxypyridin-3-yloxy)methyl)-3-methoxy-N-(methylsulfonyl)benzamide diethylamine salt]: the IC50 is 0.281 µM.

In the case of `COc1ncc(OCc2ccc(C(=O)NS(C)(=O)=O)cc2)cc1Cl` [Example 6, 4-((5-Chloro-6-methoxypyridin-3-yloxy)methyl)-N-(methylsulfonyl)benzamide], the IC50 is 3.58 µM.

Turning to `COc1ccc(OCc2ccc(C(=O)NS(C)(=O)=O)cc2)cn1` [Example 7, 4-{[(6-Methoxypyridin-3-yl)oxy]methyl}-N-(methylsulfonyl)benzamide], the IC50 is 35.7 µM.

As to `CS(=O)(=O)NC(=O)c1ccc(OCc2ccc(C(F)(F)F)nc2)cc1` [Example 9, N-(methylsulfonyl)-4-{[6-(trifluoromethyl)pyridin-3-yl]methoxy}benzamide formate salt], the IC50 was over 1 µM.

As for `CS(=O)(=O)NC(=O)c1ccc(COc2cncc(Cl)c2)cc1` [Example 10, 4-((5-Chloropyridin-3-yloxy)methyl)-N-(methylsulfonyl)benzamide], the IC50 is 8.46 µM.

Regarding `CS(=O)(=O)NC(=O)c1cc(F)c(COc2cnc(OCCC(F)(F)F)c(Cl)c2)cc1F` [Example 11, 4-({[5-Chloro-6-(3,3,3-trifluoropropoxy)pyridin-3-yl]oxy}methyl)-2,5-difluoro-N-(methylsulfonyl)benzamide], the IC50 was 0.0392 µM.

On to `CS(=O)(=O)NC(=O)c1cc(F)c(COc2cnc(C(F)(F)F)c(Cl)c2)cc1F` [Example 12, 4-({[5-Chloro-6-(trifluoromethyl)pyridin-3-yl]oxy}methyl)-2,5-difluoro-N-(methylsulfonyl)benzamide], for which the IC50 is 0.843 µM.

On to `CC(C)(F)COc1ncc(OCc2cc(F)c(C(=O)NS(C)(=O)=O)cc2F)cc1Cl` [Example 13, 4-((5-Chloro-6-(2-fluoro-2-methylpropoxy)pyridin-3-yloxy)methyl)-2,5-difluoro-N-(methylsulfonyl)benzamide], for which the IC50 is 0.0814 µM.

Turning to `CC1(COc2ncc(OCc3cc(F)c(C(=O)NS(C)(=O)=O)cc3F)cc2Cl)CC1` [Example 14, 4-((5-Chloro-6-((1-methylcyclopropyl)methoxy)pyridin-3-yloxy)methyl)-2,5-difluoro-N-(methylsulfonyl)benzamide], the IC50 was 0.0668 µM.

As for `[2H]C([2H])([2H])C(Oc1ncc(OCc2cc(F)c(C(=O)NS(C)(=O)=O)cc2F)cc1Cl)(C([2H])([2H])[2H])C([2H])([2H])[2H]` [Example 15], the IC50 is 0.0308 µM.

Turning to `CS(=O)(=O)NC(=O)c1cc(F)c(COc2cnc(OCC(F)(F)F)c(Cl)c2)cc1F` [Example 16, 4-((5-Chloro-6-(2,2,2-trifluoroethoxy)pyridin-3-yloxy)methyl)-2,5-difluoro-N-(methylsulfonyl)benzamide], the IC50 is 0.15 µM.

On to `CS(=O)(=O)NC(=O)c1cc(F)c(COc2cnc(OCC3CC3)c(Cl)c2)cc1F` [Example 17, 4-((5-Chloro-6-(cyclopropylmethoxy)pyridin-3-yloxy)methyl)-2,5-difluoro-N-(methylsulfonyl)benzamide], for which the IC50 was 0.156 µM.

Turning to `CC(C)(C)Oc1ncc(OCc2cc(F)c(C(=O)NS(C)(=O)=O)cc2F)cc1Cl` [Example 18, 4-((6-tert-Butoxy-5-chloropyridin-3-yloxy)methyl)-2,5-difluoro-N-(methylsulfonyl)benzamide], the IC50 was 0.0806 µM.

Regarding `CS(=O)(=O)NC(=O)c1cc(F)c(COc2cnc(OCC3CC(F)(F)C3)c(Cl)c2)cc1F` [Example 19, 4-((5-Chloro-6-((3,3-difluorocyclobutyl)methoxy)pyridin-3-yloxy)methyl)-2,5-difluoro-N-(methylsulfonyl)benzamide], the IC50 is 0.73 µM.

For the molecule `CS(=O)(=O)NC(=O)c1cc(F)c(COc2cncc(Cl)c2)cc1F` [Example 20, 4-{[(5-Chloropyridin-3-yl)oxy]methyl}-2,5-difluoro-N-(methylsulfonyl)benzamide], the IC50 is over 3 µM.

With `[2H]C([2H])([2H])C([2H])(Oc1ncc(OCc2cc(F)c(C(=O)NS(C)(=O)=O)cc2F)cc1Cl)C([2H])([2H])[2H]` [Example 21, 4-{[(5-Chloro-6-d7-isopropoxypyridin-3-yl)oxy]methyl}-2,5-difluoro-N-(methylsulfonyl)benzamide], the IC50 was 0.161 µM.

For the molecule `CS(=O)(=O)NC(=O)c1cc(F)c(COc2cnc(OCC(F)(F)C(F)F)c(Cl)c2)cc1F` [Example 22, 4-({[5-Chloro-6-(2,2,3,3-tetrafluoropropoxy)pyridin-3-yl]oxy}methyl)-2,5-difluoro-N-(methylsulfonyl)benzamide], the IC50 is 0.0092 µM.

On to `[2H]C(C)(C)Oc1ncc(OCc2cc(F)c(C(=O)NS(C)(=O)=O)cc2F)cc1Cl` [Example 24, 4-{[(5-Chloro-6-d1-isopropoxypyridin-3-yl)oxy]methyl}-2,5-difluoro-N-(methylsulfonyl)benzamide], for which the IC50 is 0.14 µM.

As for `CS(=O)(=O)NC(=O)c1cc(F)c(COc2cnc(OCC(F)(F)C(F)(F)F)c(Cl)c2)cc1F` [Example 25, 4-({[5-Chloro-6-(2,2,3,3,3-pentafluoropropoxy)pyridin-3-yl]oxy}methyl)-2,5-difluoro-N-(methylsulfonyl)benzamide], the IC50 was 0.0186 µM.

As for `CS(=O)(=O)NC(=O)c1cc(F)c(COc2ccc(C(F)(F)F)nc2)cc1F` [Example 26, 2,5-Difluoro-N-(methylsulfonyl)-4-({[6-(trifluoromethyl)pyridin-3-yl]oxy}methyl)benzamide], the IC50 is 4.98 µM.

Take `CC(Oc1ncc(OCc2cc(F)c(C(=O)NS(C)(=O)=O)cc2F)cc1Cl)C(F)(F)F` (stereo not drawn) [Example 27, 4-((5-Chloro-6-(1,1,1-trifluoropropan-2-yloxy)pyridin-3-yloxy)methyl)-2,5-difluoro-N-(methylsulfonyl)benzamide]: the IC50 is 0.042 µM.

As for `COc1ncc(OCc2cc(F)c(C(=O)NS(C)(=O)=O)cc2F)cc1Cl` [Example 28, 4-((5-Chloro-6-methoxypyridin-3-yloxy)methyl)-2,5-difluoro-N-(methylsulfonyl)benzamide], the IC50 is 7.44 µM.

In the case of `CC(C)Oc1ncc(COc2cc(F)c(C(=O)NS(C)(=O)=O)cc2F)cc1Cl` [Example 29, 4-((5-Chloro-6-isopropoxypyridin-3-yl)methoxy)-2,5-difluoro-N-(methylsulfonyl)benzamide diethylamine salt], the IC50 was 0.838 µM.

For the molecule `CS(=O)(=O)NC(=O)c1cc(Cl)c(COc2cnc(OC(C(F)(F)F)C(F)(F)F)c(Cl)c2)cc1F` [Example 30, 5-Chloro-4-((5-chloro-6-(1,1,1,3,3,3-hexafluoropropan-2-yloxy)pyridin-3-yloxy)methyl)-2-fluoro-N-(methylsulfonyl)benzamide], the IC50 was under 0.1 µM.
